Measurements: patent US10294259B2, “Phenyl c-glucoside derivative containing deoxyglucose structure, preparation method and use thereof” (Tianjin Institute of Pharmaceutical Research, priority 2012, dated 2019)

Key:
[1] = molecular target: hSGLT2 (Homo sapiens (Human), UniProt P31639); test: IC50 of inhibition on SGLT2 (method of Meng et al., J. Med. Chem. 2008); format: cell-based
[2] = tested on: SD rats (type 2 diabetes model); test: Urine glucose excretion in streptozotocin/high-fat high-sucrose diet type 2 diabetes model rats, glucose-oxidase method; format: in vivo, rat; details: for urine glucose excretion effect (comparison in words): compared with analogues or non-deoxy compounds
Method: The health SD rats are injected intraperitoneally with multiple low doses of streptozotocin for modeling (type 2 diabetes model) after feeding with high-fat and high-sucrose diet, and the content of blood glucose is measured before and after modeling. After the modeling successful, the rats for modeling are randomly divided (8 rats/group) into one blank group (administering the same volume of 0.5% CMC sodium solution) and several groups for compounds to be tested (6 mg/kg) according to the content of 24-hour urine glucose and the body weight. Rats in each group are fasted for 16 hours before experiment. The experimental rats are administered intragastrically with glucose (2 g/kg) at 0.5 h after intragastrical administration with compounds to be tested. The urine is collected at the time-period of 0-12 h after administration, and the urine glucose values are measured at each time-period by glucose-oxidase method. […]

[3] = molecular target: hSGLT1 (Homo sapiens (Human), UniProt P13866); test: IC50 of inhibition on SGLT1 (method of Meng et al., J. Med. Chem. 2008); format: cell-based; details: compared with methoxyl and methyl analogues of Table 3
Chain of hSGLT1 (P13866 whole entry): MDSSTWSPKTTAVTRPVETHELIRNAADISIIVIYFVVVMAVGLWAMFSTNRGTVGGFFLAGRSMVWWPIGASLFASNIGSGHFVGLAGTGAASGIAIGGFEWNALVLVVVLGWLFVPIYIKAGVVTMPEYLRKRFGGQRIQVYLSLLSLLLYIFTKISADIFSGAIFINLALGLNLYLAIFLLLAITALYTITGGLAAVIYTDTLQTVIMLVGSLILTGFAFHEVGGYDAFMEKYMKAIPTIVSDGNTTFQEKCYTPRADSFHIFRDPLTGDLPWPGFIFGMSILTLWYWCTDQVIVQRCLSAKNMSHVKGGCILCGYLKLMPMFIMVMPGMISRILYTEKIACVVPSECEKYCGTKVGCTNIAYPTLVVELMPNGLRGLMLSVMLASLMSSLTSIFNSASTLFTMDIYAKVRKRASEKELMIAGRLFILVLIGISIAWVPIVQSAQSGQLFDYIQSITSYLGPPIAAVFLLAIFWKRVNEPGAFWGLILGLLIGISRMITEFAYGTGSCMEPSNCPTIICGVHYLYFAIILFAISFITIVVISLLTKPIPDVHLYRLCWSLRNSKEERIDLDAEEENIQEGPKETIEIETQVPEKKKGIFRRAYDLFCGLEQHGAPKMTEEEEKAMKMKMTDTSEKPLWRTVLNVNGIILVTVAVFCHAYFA

[4] = Influencing factors test: higher temperature stability; format: physicochemical; details: listed as I-D1-6 raw materials
Excerpt: (§1) The appearance, number of impurity and the amount of impurity (measured by HPLC) are compared with that of day 0.

[5] = Influencing factors test: light stability; format: physicochemical; details: listed as I-D1-6 raw materials
Excerpt: as §1

[6] = Influencing factors test: higher humidity stability; format: physicochemical; details: listed as I-D1-6 raw materials
Excerpt: as §1

[7] = compared with methoxyl and methyl analogues of Table 3

Chain of hSGLT2 (P31639 whole entry): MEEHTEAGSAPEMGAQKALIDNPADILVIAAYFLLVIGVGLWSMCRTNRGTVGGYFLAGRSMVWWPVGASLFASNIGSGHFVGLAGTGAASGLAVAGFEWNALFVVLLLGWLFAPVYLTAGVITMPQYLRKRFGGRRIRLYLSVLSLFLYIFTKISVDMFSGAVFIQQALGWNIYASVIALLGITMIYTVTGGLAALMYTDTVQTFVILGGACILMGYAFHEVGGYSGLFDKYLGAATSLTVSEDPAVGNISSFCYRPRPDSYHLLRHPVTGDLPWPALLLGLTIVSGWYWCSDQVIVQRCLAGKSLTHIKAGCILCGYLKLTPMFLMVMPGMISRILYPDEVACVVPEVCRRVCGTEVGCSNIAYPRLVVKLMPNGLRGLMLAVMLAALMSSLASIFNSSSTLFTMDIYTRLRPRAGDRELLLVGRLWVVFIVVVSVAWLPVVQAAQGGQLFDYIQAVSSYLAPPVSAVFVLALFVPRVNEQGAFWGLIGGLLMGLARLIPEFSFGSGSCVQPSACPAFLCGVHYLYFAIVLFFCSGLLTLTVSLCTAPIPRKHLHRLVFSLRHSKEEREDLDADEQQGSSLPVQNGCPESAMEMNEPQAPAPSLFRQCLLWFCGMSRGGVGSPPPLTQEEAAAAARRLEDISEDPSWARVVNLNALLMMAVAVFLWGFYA

CCOc1ccc(Cc2cc(C3OC(C)C(O)C(O)C3O)ccc2C)cc1 (stereo not shown) [drawing 313]
Selectivity IC50 (hSGLT1)/IC50 (hSGLT2) [1]: 24

CCOc1ccc(Cc2cc([C@@H]3O[C@H](CO)[C@@H](O)C[C@H]3O)ccc2Cl)cc1 [I-D1-3, (1S)-1-[4-chloro-3-(4-ethoxybenzyl)phenyl]-1,3-dideoxy-D-glucose]
urine glucose excretion effect (comparison in words) [2]: stronger urine glucose excretion effect

CCOc1ccc(Cc2cc(C3OC(C)C(O)C(O)C3O)ccc2Cl)cc1 [I-D1-6, (1S)-1-[4-chloro-3-(4-ethoxybenzyl)phenyl]-1,6-dideoxy-D-glucose]
inhibition to SGLT1 (comparison in words) [3]: much less inhibition to SGLT1
Number of impurity ([4]; 45° C., day 0, HPLC): 7
Total amount of impurity (%) ([4]; 45° C., day 0, HPLC): 0.89%
Number of impurity ([4]; 45° C., day 7, HPLC): 8
Total amount of impurity (%) ([4]; 45° C., day 7, HPLC): 0.97%
Appearance ([4]; 45° C., day 7): white, foam-like
Number of impurity ([4]; 45° C., day 14, HPLC): 9
Appearance ([4]; 45° C., day 14): white, foam-like
Appearance ([4]; higher temperature (45° C.), day 0): white, foam-like
Appearance ([5]; light (natural daylight, about 80000 Lx), day 0): a white, foam-like
Appearance ([5]; light, day 7): a white, foam-like
Appearance ([5]; light, day 14): a white, foam-like
urine glucose excretion effect (comparison in words) [2]: stronger urine glucose excretion effect
Appearance ([6]; higher humidity (30% relative humidity at 30° C.), day 0): white, foam-like
Appearance ([6]; higher humidity, day 7): white foam-like
Appearance ([6]; higher humidity, day 14): white foam-like
inhibition to SGLT2 (comparison in words) [1, 7]: much stronger inhibition to SGLT2
selectivity on SGLT1/SGLT2 (comparison in words) [1, 7]: much better selectivity on SGLT1/SGLT2

CCOc1ccc(Cc2cc(C3OC(C)(C)C(O)C(O)C3O)ccc2Cl)cc1 (stereo not shown)
Urine glucose excretion ([2]; 6 mg/kg intragastric, glucose 2 g/kg at 0.5 h, urine collected 0-12 h): 470 mg/200 g body weight of the rat

COc1ccc(Cc2cc(C3OC(C)C(O)C(O)C3O)ccc2Cl)cc1 (stereo not shown) [drawing 311]
Selectivity IC50 (hSGLT1)/IC50 (hSGLT2) [1]: 26
